According to patent US20100035911A1, “DRUG COMBINATIONS TO TREAT HYPERPROLIFERATIVE DISORDERS” (priority 2006, published 2010):

Legend:
[1] = system: human ovarian cancer cell line, CRL-1572; experiment: Survival of mice bearing CRL-1572 ovarian cancer subcutaneous xenografts; format: in vivo; details: CRL-1572 xenografts; single agents at the drug doses employed
Description: Fenretinide combined with taxanes is active against ovarian cancer Xenografts. Based on the surprising and favorable results observed when combining ABT-751 with fenretinide with neuroblastoma xenografts and vincristine with fenretinide for a lymphoma xenograft, we explored other types of cancer as xenografts and we also sought to test taxanes for a possible increase in activity when combined with fenretinide.

[2] = cited from earlier work
[3] = system: human Ramos Burkitts lymphoma cell line; experiment: Survival of mice bearing Ramos lymphoma subcutaneous xenografts; format: in vivo; details: single agents at the drug doses employed
Description: Treating lymphoma xenografts with fenretinide combined with vincristine. […] Testing of fenretinide+vincristine was carried out as described for fenretinide+ABT-751 in Example 1, except that vincristine was given by i.p. injection twice a week during the 5 day administration of fenretinide.

[4] = system: human neuroblastoma cell line CHLA-136; experiment: Event-free survival of mice bearing CHLA-136 subcutaneous xenografts; format: in vivo, nu/nu mice; details: CHLA-136 xenograft; single agents at the drug doses employed
Description: Treating cancer in xenografts with fenretinide+ABT-751. Administration of fenretinide and ABT-751 in combination to nu/nu mice bearing subcutaneous xenografts of multi-drug resistant neuroblastoma xenografts (tumor cell lines are described in: Keshelava N, Zuo J J, Chen P, Waidyaratine S N, Luna M C, Gomer C J, Triche T J, Reynolds C P: Loss of p53 function confers high-level multi-drug resistance in neuroblastoma cell lines. Cancer Research 61:6185-6193, 2001, and xenograft methods are described in: Reynolds, C P, Sun B C, DeClerck Y A, Moats R A: Assessing growth and response to therapy in murine tumor models. Methods in Molecular Medicine Chemosensitivity Vol 2 ed. Blumenthal R D, Totowa: Humana Press pp 335-350, 2005.
Mice were treated daily with ABT-751, and twice daily with fenretinide for 5 days/week. Fenretinide was given as a powder LXS formulation mixed with water (Maurer B J, Kalous O, Yesair D W, Wu X, Vratilova J, Maldonado V, Khankaldyyan V, Frgala T, Sun B C, McKee R T, Burgess S W, Shaw W A, Reynolds C P. Improved oral delivery of N-(4-hydroxyphenyl)retinamide with novel LYM-X-SORB™ organized lipid complex in mice. Clinical Cancer Research (In Press, 2007)). Both drugs were given to mice by gavage.

Compound | response of tumor cell line to single agent [1] | solubility in aqueous solution [2] | response of tumor cell line to single agent [3] | response of xenograft to single agent [4]
CC(=O)O[C@H]1C(=O)[C@@]2(C)[C@H]([C@H](OC(=O)c3ccccc3)[C@]3(O)C[C@H](OC(=O)[C@H](O)[C@@H](NC(=O)c4ccccc4)c4ccccc4)C(C)=C1C3(C)C)[C@]1(OC(C)=O)CO[C@@H]1C[C@@H]2O [paclitaxel] | minimally responsive | – | – | –
CC1=C(/C=C/C(C)=C/C=C/C(C)=C/C(=O)Nc2ccc(O)cc2)C(C)(C)CCC1 [fenretinide, all-trans-N-(4-hydroxyphenyl)retinamide] | minimally responsive | minimally soluble | minimally responsive | minimally response
COc1ccc(S(=O)(=O)Nc2cccnc2Nc2ccc(O)cc2)cc1 [ABT-751] | – | – | – | minimally response
vincristine | – | – | minimally responsive | –
